Like-named read-outs stand apart in the source and are kept apart here.
Key:
human mGlu5 = target: T1, human mGlu5 (Homo sapiens, UniProt P41594); experiment: Calcium mobilization assay in human mGlu5-HEK293A cells (NAM, EC80 glutamate); type: cell-based; details: for % GluMin: efficacy of the NAM to reduce an EC80 response of glutamate; for pIC50: n = 2 in triplicate; for IC50: read-out: hmGlu5 IC50; for fold increase in hmGlu5 potency: 22fC vs 22bC, 22gA vs 22iA, 22iA vs 22hA, 22iB vs 22hB
T1 construct: expressed in transfected cells

[1] = Binding in plasma from rat (equilibrium dialysis); type: in vitro ADME; details: for stability in rat plasma: samples had low analyte peaks; for fraction unbound at 6 h, 5 µM: rat, plasma, equilibrium dialysis, read-out: Rat fu,plasma
Method: (§1) Binding in plasma from rat and human.
(§2) Determination of compounds’ fraction unbound (f u) in plasma from rat and human was conducted in vitro via equilibrium dialysis using HTDialysis membrane plates. Dialysis membranes (four paired strips per HTD assay) were hydrated as described by the manufacturer and inserted into the HTD plate, which was assembled and prepared for sample addition by the dispensing of blank buffer (DPBS, 100 µL/well) into the ‘top half’ of each membrane-split well. Each compound was diluted into plasma from each species (5 µM final concentration), which was aliquoted in triplicate to the ‘bottom half’ of the prepared HTD plate wells. The HTD plate was sealed and incubated for 6 hours at 37 °C. Following incubation, each well (both top and bottom halves) were transferred (20 µL) to the corresponding wells of a 96-shallow-well (V-bottom) plate. The daughter plates were then matrix-matched (buffer side wells received equal volume of plasma, and plasma side wells received equal volume of buffer), and extraction solution (120 µL; acetonitrile containing 50 nM carbamazepine as IS) was added to all wells of both daughter plates to precipitate protein and extract test article. The plates were then sealed and centrifuged (3500 rcf) for 10 minutes at ambient temperature. Supernatant (60 µL) from each well of the daughter plates was then transferred to the corresponding wells of new daughter plates (96-shallow-well, V bottom) containing water (Milli-Q, 60 µL/well), and the plates were sealed in preparation for LC-MS/MS analysis (see below). fu was calculated as (analyte to IS MS peak area ratio from Trans-buffer side) / (analyte to IS MS peak area ratio from Cis-plasma side). Mean values for each species were calculated from 3 replicates. […]
(§3) Mean values for each species were calculated from 3 replicates. […]
(§4) After 5 minutes (pre-incubation), reactions were initiated by addition of nicotinamide adenine dinucleotide phosphate (NADPH, 1 mM final concentration). At selected time intervals (0, 3, 7, 15, 25, and 45 minutes) post-addition of NADPH, aliquots (50 µL) were taken and placed into a 96-shallow-well plate containing ice cold acetonitrile (150 µL) with carbamazepine (IS, 50 nM). The plates were then centrifuged (3000 rcf at 4 °C) for 10 minutes. The supernatants were transferred to a new 96-shallow-well daughter plate and diluted (1:1 v/v) with water (Milli-Q filtered). The plates were then sealed in preparation for LC-MS/MS analysis (see below).

[2] = Intrinsic clearance in rat liver microsomes; type: in vitro ADME; details: for CLint scaled at 40 min, 1 µM: pH 7.4, rat liver microsomes; for CLhep, rat: predicted hepatic clearance based on microsomal CLint
Method: (§5) Mean values for each species were calculated from 3 replicates.
(§6) Intrinsic Clearance in Rat and Human Liver Microsomes
(§7) The in vitro intrinsic clearance (CL int) was investigated in commercially obtained hepatic microsomes from rat and human donors using the substrate depletion (i.e., loss-of-parent vs. time, or t 1/2 method) approach with analyte detection via liquid chromatography-tandem mass spectrometry (LC-MS/MS). For each species, mean %parent remaining values at each time point were calculated from replicates raw data (analyte:IS peak area ratios) and used to determine in vitro t 1/2 and CLint.
as §4, with “Experiments were carried out using a robot-assisted (TECAN model Evo 200). Compound was incubated (1 µM final concentration) in buffer (100 mM potassium phosphate pH 7.4 with 3 mM MgCl2) containing hepatic microsomes (0.5 mg/mL final concentration) from multiple species, discretely, at 37 °C under constant orbital shaking. After” for “After”
(§8) Raw LC-MS/MS peak area data generated from the assay samples were used to construct natural log-transformed %parent remaining vs. time plots (using t = 0 minute post-NADPH addition sample data as starting point set to 100%). In vitro compound half-life (t 1/2) values were obtained using the following […]
(§9) k is the slope from linear regression analysis of the natural log-transformed data (using means from Where all replicates at each time point). Resulting t 1/2 values were then used to calculate hepatic CLint values according to the following equation and with the use of species-specific scale-up factors for liver weight (grams) per total body weight (kg): […]
(§10) CLint = in vitro t1/2 x 0.5 mg microsomes x 1 gram liver x kg body wt aScale-up factors used are 45 (rat) and 20 (human).4
(§11) Predicted hepatic clearance (CLhep) was calculated using the following equation: […]
(§12) Qh represents hepatic blood flow (mL/min/kg): 21 for human, 70 for rat, and 90 for mouse.
(§13) Prepared samples were injected (10 µL each) onto an AB Sciex Triple Quad 4500 mass spectrometer system with an Agilent 1260 Infinity II pump and autosampler. Mass spectrometer conditions are described in Table S1. Quantitation of compounds was performed via AB Sciex Multiquant software using the raw analyte:IS peak area ratios. The typical detection range was 0.5 ng/mL to ≥ 5,000 ng/mL utilizing a quadratic equation regression with 1/x2 weighting.
(§14) Correction for dilution of all brain samples (in extraction buffer and subsequently in blank plasma, as previously described) was performed post-quantitation. The corrections for dilution in extraction buffer employed correction factors specific to each brain weight (not shown).

[3] = Binding in plasma from human (equilibrium dialysis); type: in vitro ADME; details: for fraction unbound at 6 h, 5 µM: human, plasma, read-out: Human fu,plasma
Method: as §1, §2, §3, §4

[4] = Binding in brain homogenate from rat (equilibrium dialysis); type: in vitro ADME; details: rat brain homogenates; for fraction unbound at 6 h, 1 µM: rat, brain homogenate, read-out: Rat fu,brain
Method: transferred to the corresponding wells of new daughter plates (96-shallow-well, V bottom) containing water (Milli-Q, 60 µL/well), and the plates were sealed in preparation for LC-MS/MS analysis (see below). fu was calculated as (analyte to IS MS peak area ratio from Trans-buffer side) / (analyte to IS MS peak area ratio from Cis-plasma side). Mean values for each species were calculated from 3 replicates.
Binding in brain homogenate from rat.
Determination of fraction unbound (f u) in brain homogenate from rat was conducted using the same methodology and procedure than described for plasma protein binding assay with the following modifications: 1) a final compound concentration of 1 μM was used, 2) naïve rat brains were homogenized in DPBS (1:3 composition of brain: DPBS, w/w) using a Mini-Bead Beater™ machine in order to obtain […]
The diluted fraction unbound (f u2) in brain was calculated as (analyte to IS MS peak area ratio from Trans-buffer side) / (analyte to IS MS peak area ratio from Cis-brain homogenate side). Undiluted fraction unbound for the brain was calculated using the following equation: […]
as §3

[5] = IV plasma-brain level determination (PBL) in rat; type: in vivo; details: male, Sprague-Dawley, brain and plasma, SD rat, 0.2 mg/kg IV; for Kp at 0.25 h: total brain-to-plasma partition ratio; for Kp uu at 0.25 h: unbound brain-to-plasma partition ratio
[6] = Intrinsic clearance in human liver microsomes; type: in vitro ADME; details: for CLint scaled at 40 min, 1 µM: pH 7.4, human liver microsomes; for CLhep, human: predicted hepatic clearance based on microsomal CLint
Method: as §5, §6, §7
as §4, with “Experiments were carried out using a robot-assisted (TECAN model Evo 200). Compound was incubated (1 µM final concentration) in buffer (100 mM potassium phosphate pH 7.4 with 3 mM MgCl2) containing hepatic microsomes (0.5 mg/mL final concentration) from multiple species, discretely, at 37 °C under constant orbital shaking. After” for “After”
as §8, §9, §10, §11, §12, §13, §14

[7] = human mGlu5-HEK293A cells, EC80 fixed concentration of glutamate

T1 sequence (P41594 21-1212): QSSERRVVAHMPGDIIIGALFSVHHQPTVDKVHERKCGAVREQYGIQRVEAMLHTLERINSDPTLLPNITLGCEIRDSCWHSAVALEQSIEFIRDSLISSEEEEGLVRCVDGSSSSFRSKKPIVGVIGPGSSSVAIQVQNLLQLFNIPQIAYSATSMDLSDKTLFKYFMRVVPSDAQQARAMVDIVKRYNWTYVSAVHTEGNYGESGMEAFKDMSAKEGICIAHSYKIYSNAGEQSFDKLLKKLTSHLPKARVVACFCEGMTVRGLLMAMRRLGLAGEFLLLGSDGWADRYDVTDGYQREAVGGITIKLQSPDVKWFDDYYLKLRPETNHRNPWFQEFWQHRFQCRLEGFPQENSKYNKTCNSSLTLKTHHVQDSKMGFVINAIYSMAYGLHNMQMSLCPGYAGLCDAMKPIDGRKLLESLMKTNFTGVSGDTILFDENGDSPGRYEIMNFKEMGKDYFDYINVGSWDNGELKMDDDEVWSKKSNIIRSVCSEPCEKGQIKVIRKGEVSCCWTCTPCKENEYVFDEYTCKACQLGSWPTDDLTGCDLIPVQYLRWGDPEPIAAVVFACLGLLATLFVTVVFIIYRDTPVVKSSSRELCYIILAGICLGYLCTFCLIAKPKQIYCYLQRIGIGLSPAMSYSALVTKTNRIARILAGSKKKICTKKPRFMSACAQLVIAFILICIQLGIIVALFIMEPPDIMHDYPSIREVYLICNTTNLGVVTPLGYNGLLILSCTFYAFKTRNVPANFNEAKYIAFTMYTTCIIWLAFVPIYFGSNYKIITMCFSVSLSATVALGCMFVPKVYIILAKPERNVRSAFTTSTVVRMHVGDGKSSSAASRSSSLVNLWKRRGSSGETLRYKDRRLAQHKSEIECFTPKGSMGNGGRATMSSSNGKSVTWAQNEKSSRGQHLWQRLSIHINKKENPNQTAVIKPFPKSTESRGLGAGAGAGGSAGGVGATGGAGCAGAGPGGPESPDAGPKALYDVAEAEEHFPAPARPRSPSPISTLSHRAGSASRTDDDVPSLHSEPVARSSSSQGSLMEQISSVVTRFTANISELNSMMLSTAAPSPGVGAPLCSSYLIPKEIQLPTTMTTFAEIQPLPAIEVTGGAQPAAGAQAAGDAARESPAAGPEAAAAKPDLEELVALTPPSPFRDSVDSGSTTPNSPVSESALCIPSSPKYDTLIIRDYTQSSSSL

Structure (SMILES)	% GluMin (human mGlu5; human mGlu5-HEK293A cells)	pIC50 (human mGlu5; [7])	IC50 (human mGlu5; [7])	IC50 (human mGlu5)	stability in rat plasma [1]	CLint scaled at 40 min, 1 µM [2]	CLhep, rat [2]	fraction unbound at 6 h, 5 µM [3]	Rat fu,brain ([4]; fraction unbound)	fraction unbound at 6 h, 1 µM [4]	fold increase in hmGlu5 potency (human mGlu5)	Kp at 0.25 h [5]	CLint scaled at 40 min, 1 µM [6]	CLhep, human [6]	Human fu,plasma ([3]; fraction unbound)	Kp uu at 0.25 h [5]	fraction unbound at 6 h, 5 µM [1]
Cc1cc(Oc2cn(C)nc2C)cc(C(=O)Nc2nc(C)cs2)n1 [22bB]	2%	5.91	1.25 µM														
Cc1cc(Oc2cc(C(F)F)n(C)n2)cc(C(=O)Nc2nc(C)cs2)n1 [22cB]	2%	5.74	1.85 µM														
Cc1cc(Oc2ncn(C)n2)cc(C(=O)Nc2nc(C)cs2)n1 [22dB]	2%	5.73	1.89 µM														
Cc1cccc(NC(=O)c2cc(Oc3cc(C)nn3C)cc(C)n2)n1 [22fC]	2%	6.69	0.207 µM		possibly be unstable in rat plasma	436 mL/min/kg	60 mL/min/kg	0.037	0.008	< 0.01	7.8 fold	1.02	71 mL/min/kg	16 mL/min/kg			
Cc1cc(Oc2cnn(C)c2C(F)(F)F)cc(C(=O)Nc2ccc(F)cn2)n1 [22gA]	2%	6.93	0.12 µM		possibly be unstable in rat plasma	82 mL/min/kg	38 mL/min/kg	0.012			~3 fold	3.08	11 mL/min/kg	7 mL/min/kg			
Cc1cc(Oc2cnn(C)c2C(F)(F)F)cc(C(=O)Nc2nc(C)cs2)n1 [22gB]	2%	7.58	0.026 µM		possibly be unstable in rat plasma	817 mL/min/kg	65 mL/min/kg					5.57	70 mL/min/kg	16 mL/min/kg			
Cc1cccc(NC(=O)c2cc(Oc3cnn(C)c3C(F)(F)F)cc(C)n2)n1 [22gC]						600 mL/min/kg	63 mL/min/kg	0.011		0.005			68 mL/min/kg	16 mL/min/kg			
Cc1cc(Oc2ccnn2C)cc(C(=O)Nc2nc(C)cs2)n1 [22hB]	2%	7.02	0.096 µM			45 mL/min/kg	27 mL/min/kg	> 0.04		0.029		1.13	216 mL/min/kg	19 mL/min/kg	0.062	0.15	
Cc1cccc(NC(=O)c2cc(Oc3ccnn3C)cc(C)n2)n1 [22hC]	2%	7.04	0.091 µM		potentially be unstable in rat plasma	320 mL/min/kg	57 mL/min/kg	0.034		0.021		2.42	241 mL/min/kg	19 mL/min/kg			
Cc1cc(Oc2cnn(C)c2)cc(C(=O)Nc2nc(C)cs2)n1 [22iB]	2%	7.56	0.028 µM			44 mL/min/kg	27 mL/min/kg	0.063		0.014	3.4 fold	1.37	46 mL/min/kg	14 mL/min/kg		0.22	0.089
Cc1cccc(NC(=O)c2cc(Oc3cnn(C)c3)cc(C)n2)n1 [22iC]	1%	7.38	0.041 µM			234 mL/min/kg	54 mL/min/kg	0.041		0.013		1.04	77 mL/min/kg	17 mL/min/kg		0.23	0.059
Cc1csc(NC(=O)c2cc(Oc3cnn(C)c3)c(C(F)(F)F)cn2)n1 [24B]	2%	5.55	2.82 µM	2.8 µM													
Cc1cccc(NC(=O)c2cc(Oc3cnn(C)c3)c(C(F)(F)F)cn2)n1 [24C]	2%	5.89	1.33 µM	1.3 µM													

Continued, in another order:

% GluMin (human mGlu5; human mGlu5-HEK293A cells)	pIC50 (human mGlu5; [7])	IC50 (human mGlu5; [7])	IC50 (human mGlu5)	Structure (SMILES)	stability in rat plasma [1]	CLint scaled at 40 min, 1 µM [2]	CLhep, rat [2]	fraction unbound at 6 h, 5 µM [3]	Rat fu,brain ([4]; fraction unbound)	fraction unbound at 6 h, 1 µM [4]	fold increase in hmGlu5 potency (human mGlu5)	Kp at 0.25 h [5]	CLint scaled at 40 min, 1 µM [6]	CLhep, human [6]	Human fu,plasma ([3]; fraction unbound)	Kp uu at 0.25 h [5]	fraction unbound at 6 h, 5 µM [1]
2%	5.55	2.84 µM	2.8 µM	Cc1cccc(NC(=O)c2cc(Oc3c(C)nn(C)c3C)cc(C)n2)n1 [22aC]													
2%	6.00	1.01 µM		Cc1cccc(NC(=O)c2cc(Oc3ncn(C)n3)cc(C)n2)n1 [22dC]													
2%	5.77	1.72 µM		Cc1cc(Oc2cc(C)n(C)n2)cc(C(=O)Nc2nc(C)cs2)n1 [22eB]													
2%	6.30	0.506 µM		Cc1cc(Oc2ccnn2C)cc(C(=O)Nc2ccc(F)cn2)n1 [22hA]													

Reference: paper PMC11647725, “Discovery of 4-(5-Membered)Heteroarylether-6-methylpicolinamide Negative Allosteric Modulators of Metabotropic Glutamate Receptor Subtype 5” (ACS Medicinal Chemistry Letters, 2024)
